Source: ChEMBL document CHEMBL1201862, “PubChem BioAssay data set” (2004)
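Method: 48-hour compound exposure of cells in 96-well plates, five concentrations, linear interpolation of endpoints. Abbreviation: GI50, concentration required for 50% inhibition of growth.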 Activity calls are given as the source filed them. Rule as the data show it: active = GI50 up to about 1.1 µM and inactive = higher.

Columns and labels:
Assay in all cases: NCI anticancer screen, dose series, 48 h
MCF7 = system: MCF7
NCI-H226 = system: NCI-H226
RPMI-8226 = system: RPMI-8226
COLO 205 = system: COLO 205
OVCAR-4 = system: OVCAR-4
HL-60 = system: HL-60
SF-539 = system: SF-539
M14 = system: M14
TK-10 = system: TK-10
T47D = system: T47D
PC-3 = system: PC-3
SF-268 = system: SF-268
SK-OV-3 = system: SK-OV-3
LOX IMVI = system: LOX IMVI
CAKI-1 = system: CAKI-1
BT-549 = system: BT-549
MDA-MB-231 = system: MDA-MB-231
RXF 393 = system: RXF 393
SF-295 = system: SF-295
KM12 = system: KM12

Measured: GI50

COC(=O)C1C(C(=O)OC)C2(OC(c3ccc(Cl)cc3)=CC2=O)C12OC(c1ccc(Cl)cc1)=CC2=O (stereo unspecified)
inactive: MCF7 18 µM | NCI-H226 28.4 µM | RPMI-8226 7.21 µM | COLO 205 16.7 µM | OVCAR-4 19.9 µM | HL-60 2.81 µM | SF-539 18.3 µM | M14 19.1 µM | TK-10 22.6 µM | T47D 14.8 µM | PC-3 21.8 µM | SF-268 24.5 µM | SK-OV-3 71.1 µM | LOX IMVI 23.1 µM | CAKI-1 22 µM | BT-549 16.4 µM | MDA-MB-231 26.4 µM | RXF 393 17.5 µM | SF-295 22.6 µM

O=S(=O)(c1cc(Cl)ccc1Cl)N1CCN(c2ccc(Cl)c(Cl)c2)CC1
inactive: MCF7 > 100 µM | NCI-H226 21.7 µM | RPMI-8226 > 100 µM | OVCAR-4 16.1 µM | HL-60 > 100 µM | KM12 28.2 µM | SF-539 25.2 µM | M14 39.6 µM | TK-10 20.6 µM | T47D 20.4 µM | PC-3 99.8 µM | SF-268 27.3 µM | LOX IMVI > 100 µM | CAKI-1 22 µM | BT-549 33.3 µM | MDA-MB-231 > 100 µM | RXF 393 21 µM | SF-295 24.9 µM

CO[C@@H]1[C@H](O)CC[C@]2(CO2)[C@H]1[C@@]1(C)O[C@@H]1CC=C(C)C
inactive: MCF7 > 200 µM | NCI-H226 > 200 µM | RPMI-8226 185 µM | COLO 205 152 µM | OVCAR-4 > 200 µM | KM12 34.1 µM | SF-539 134 µM | M14 180 µM | TK-10 > 200 µM | T47D > 200 µM | PC-3 > 200 µM | SF-268 > 200 µM | SK-OV-3 > 200 µM | LOX IMVI 32.7 µM | CAKI-1 > 200 µM | BT-549 > 200 µM | MDA-MB-231 157 µM | RXF 393 > 200 µM | SF-295 11 µM

CC1S/C(=N/c2nnc(-c3ccccc3)o2)NC1=O (stereo unspecified)
inactive: MCF7 44 µM | NCI-H226 > 100 µM | RPMI-8226 49 µM | COLO 205 47.1 µM | OVCAR-4 31.2 µM | HL-60 36.7 µM | KM12 46.1 µM | SF-539 30.2 µM | M14 21.5 µM | TK-10 58.7 µM | T47D 61.1 µM | PC-3 38.5 µM | SF-268 34.5 µM | LOX IMVI 35.5 µM | CAKI-1 > 100 µM | BT-549 71.4 µM | MDA-MB-231 43.3 µM | RXF 393 61.7 µM | SF-295 18.3 µM

Cc1nnc2n(c1=O)CCCN2C
inactive: MCF7 > 100 µM | NCI-H226 > 100 µM | RPMI-8226 > 100 µM | COLO 205 > 100 µM | OVCAR-4 > 100 µM | HL-60 > 100 µM | KM12 > 100 µM | SF-539 > 100 µM | M14 > 100 µM | TK-10 > 100 µM | T47D > 100 µM | PC-3 > 100 µM | SF-268 > 100 µM | SK-OV-3 > 100 µM | LOX IMVI > 100 µM | BT-549 > 100 µM | MDA-MB-231 > 100 µM | RXF 393 > 100 µM | SF-295 > 100 µM

CCOC1CCN(C(=O)c2ccccc2)O1 (stereo unspecified)
inactive: MCF7 > 10 µM | NCI-H226 > 10 µM | RPMI-8226 > 10 µM | COLO 205 > 10 µM | OVCAR-4 > 10 µM | HL-60 > 10 µM | SF-539 > 10 µM | M14 > 10 µM | TK-10 > 10 µM | T47D > 10 µM | PC-3 > 10 µM | SF-268 > 10 µM | SK-OV-3 > 10 µM | LOX IMVI > 10 µM | CAKI-1 > 10 µM | BT-549 > 10 µM | MDA-MB-231 > 10 µM | RXF 393 > 10 µM | SF-295 > 10 µM

CC1=NN(c2cccc(Cl)c2)C2(SCC(=O)N2c2nc3ccccc3s2)/C1=C\c1cccs1 (stereo unspecified)
inactive: MCF7 27.4 µM | NCI-H226 20.3 µM | RPMI-8226 17.7 µM | OVCAR-4 21 µM | HL-60 27.9 µM | KM12 25.8 µM | SF-539 5.01 µM | M14 29.7 µM | TK-10 31.7 µM | T47D 24.9 µM | PC-3 25.5 µM | SF-268 18.9 µM | LOX IMVI 23.8 µM | CAKI-1 29.7 µM | BT-549 17.6 µM | MDA-MB-231 30.2 µM | RXF 393 20.3 µM | SF-295 27.4 µM
